Experimental findings from US9522377B2, “Method for improving the properties of amphiphile particles” (CAMURUS AB, priority 2003, dated 2016) are described below.

The conditions of series [1]: for influence of drug on properties of the dispersions: 0.3% drug, GMOrphic/12% P407, non-autoclaved and autoclaved; for effect on lattice constant of cubic phase, autoclaved dispersions / effect on particle size of autoclaved dispersions: autoclaved 121° C., 15+5 min; for influence on non-autoclaved dispersions: chloramphenicol 0.3, 1 and 2%, miconazole 0.3 and 1%.
Procedure: All drug concentrations are indicated relative to the sum of monoglyceride and poloxamer. A drug-free dispersion was prepared and investigated as a reference.
All dispersions were autoclaved at 121° C. for 15+5 min. (allowing for temperature equilibration in the autoclave) and their properties were compared to that of the corresponding non-autoclaved dispersions.
Series [2] is described as follows: Active agent loading of cubic particles. In kind it is physicochemical. How it is done:
To the dispersions is added the cationic peptide desmopressin to a concentration of 1 mg/ml. The dispersion is allowed to equilibrate for 60 minutes at room temperature and reanalyzed for particle size and optionally phase behaviour. The particle size is not affected as determined using laser diffraction.
A dispersion of cubic particles of formulation GMO/OA/F-127 (84.5:4.5:10) was prepared as in Example 24. The steroid hormone progesterone was incubated with the cubic particles at room temperature as described for desmopressin in Example 22. The equilibrium loading level was 3% by weight.
The above method was repeated by the active agent progesterone was included in the aqueous phase prior to the homogenisation and heat treatment steps. The loading level was again examined and established to be 18 wt %. The effect upon the particle size distribution was minimal.

For the compound `COC1=C(OC)C(=O)C(C/C=C(\C)CC/C=C(\C)CC/C=C(\C)CC/C=C(\C)CC/C=C(\C)CC/C=C(\C)CC/C=C(\C)CC/C=C(\C)CC/C=C(\C)CCC=C(C)C)=C(C)C1=O` [Ubidecarenone, ubidecarenone], the “influence of drug on properties of the dispersions” value in series [1] is reported as “did not influence the properties of the resulting dispersions”. For `CCCCC(=O)O[C@]1(C(=O)CO)[C@@H](C)C[C@H]2[C@@H]3CCC4=CC(=O)C=C[C@]4(C)[C@@]3(F)[C@@H](O)C[C@@]21C` [betamethasone-17-valerate], the “influence of drug on general behaviour of the dispersions” value in series [1] (0.3, 1 or 2% drug) was “no influence on the general behaviour of the dispersions”.

For the compound `O=C(N[C@H](CO)[C@H](O)c1ccc([N+](=O)[O-])cc1)C(Cl)Cl` [chloramphenicol], in series [1], the “effect on lattice constant of cubic phase, autoclaved dispersions” value is given as “slight increase in lattice constant”; the “effect on particle size of autoclaved dispersions” value is given as “particle sizes increased distinctly with drug concentration”; the “influence on non-autoclaved dispersions” value is “no influence on the non-autoclaved dispersions”. Turning to `Clc1ccc(COC(Cn2ccnc2)c2ccc(Cl)cc2Cl)c(Cl)c1` (centres unmarked) [miconazole], in series [1], the “effect on lattice constant of cubic phase, autoclaved dispersions” value is “decreased slightly”; the “effect on particle size of autoclaved dispersions” value was “slightly larger (0.3%) and distinctly larger (1%) particle sizes”; the “influence on non-autoclaved dispersions” value is given as “no influence on the non-autoclaved dispersions”. On to `CC(=O)[C@H]1CC[C@H]2[C@@H]3CCC4=CC(=O)CC[C@]4(C)[C@H]3CC[C@]12C` [progesterone], for which the loading level in series [2] (included in aqueous phase prior to homogenisation and heat treatment, GMO/OA/F-127 (84.5:4.5:10)) amounted to 18 wt %. In series [2] (incubated with GMO/OA/F-127 (84.5:4.5:10) cubic particles at room temperature), this compound yielded an equilibrium loading level of 3 % by weight. Consider `CC(=O)Oc1c(C)c(C)c2c(c1C)CCC(C)(CCC[C@H](C)CCC[C@H](C)CCCC(C)C)O2` (some centres unmarked) [tocopherol acetate], for which the “influence of drug on properties of the dispersions” value in series [1] is listed as “did not influence the properties of the resulting dispersions”.
